Paper PMC12530843, “Identification of a New Interesting BAG3 Modulator Able to Disrupt Cancer‐Related Pathways” (Chemmedchem, 2025)
Entries after “also recorded” stand apart in the source; their conditions may differ.

Key:
[1] = molecular target: T1, BAG3 full length (Homo sapiens, UniProt O95817); assay: SPR binding on full-length BAG3; details: Biacore T200, 25 °C, 1:1 model; for Kd: read-out: BAG3 FULL KD ± SD
T1 construct: purchased Novus Biologicals (Littleton, Colorado)
Experimental: (§1) Recombinant human BAG3 protein (Bcl2‐associated athanogene 3) was obtained from Novus Biologicals (Littleton, Colorado), while the BAG3 domain (BAG3‐BD) was sourced from ARETA International S.r.l. (Gerenzano, Italy). We used (Z)‐ethyl 2‐(5‐(3,4‐dihydroxybenzylidene)‐2,4‐dioxothiazolidin‐3‐yl)acetate (LK4), a BAG3 inhibitor previously identified by our group.^[ [13] ^] SPR spectroscopy was performed using a Biacore T200 optical biosensor with CM5 sensor chips (Cytiva, Marlborough, USA) to assess the affinity of synthesized molecules for BAG3 and BAG‐BD. BAG3 and BAG‐BD were immobilized on CM5 sensor chip using standard amine‐coupling protocol.^[ [15] ^, [42] ^, [43] ^] BAG3 protein (0.067 μg μL^−1 in 10 mM CH3COONa, pH 4.5) was immobilized at a flow rate of 10 μL min^−1, achieving a surface density of 14 kRU, while BAG3‐BD (0.38 μg μL^−1 in 10 mM CH3COONa, pH 4.5) reached a density of 4 kRU. For the experiments, BAG3 and BAG‐BD surfaces, as well as an unmodified reference surface, were prepared for simultaneous analysis. Compounds 1–10 and LK4 were initially dissolved to 10 mM in 100% DMSO, then diluted 1:20 (v/v) in PBS‐P buffer (0.2 M phosphate buffer, 27 mM KCl, 1.37 M NaCl, 0.5% surfactant P20) resulting in a final DMSO concentration of 5.0%. The compounds were injected in a concentration series (1:2 dilution, 10 different concentrations) ranging from 0 to 100 μM, using 96‐well plates. SPR experiments were conducted at 25 °C with a flow rate of 20 μL min^−1, featuring a 90 s association phase followed by a 400 s dissociation phase. Changes in mass, recorded as resonance units (RU), were used to quantify binding responses, while K D values were determined using Biaevaluation software by globally fitting the double‐referenced association and dissociation data to a 1:1 interaction model. (See Figure S43–S56, Supporting Information).

[2] = molecular target: T2, BAG3-BD (Homo sapiens, UniProt O95817); assay: SPR binding on BAG3 BAG domain; details: Biacore T200, 25 °C, 1:1 model; for Kd: read-out: BAG3–BD KD ± SD
T2 construct: the BAG3 domain (BAG3‐BD) was sourced from ARETA International S.r.l; (Gerenzano, Italy); purchased ARETA International S.r.l
T2 sequence (O95817 421-498 limits assumed): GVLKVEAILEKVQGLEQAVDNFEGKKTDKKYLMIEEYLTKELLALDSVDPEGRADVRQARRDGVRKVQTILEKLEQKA
Experimental: as §1

[3] = system: HeLa cells; design: method as in PMID 29926854; details: reported value; read-out: IC50 in HeLa cell line; cited from earlier work

T1 sequence (O95817 whole entry): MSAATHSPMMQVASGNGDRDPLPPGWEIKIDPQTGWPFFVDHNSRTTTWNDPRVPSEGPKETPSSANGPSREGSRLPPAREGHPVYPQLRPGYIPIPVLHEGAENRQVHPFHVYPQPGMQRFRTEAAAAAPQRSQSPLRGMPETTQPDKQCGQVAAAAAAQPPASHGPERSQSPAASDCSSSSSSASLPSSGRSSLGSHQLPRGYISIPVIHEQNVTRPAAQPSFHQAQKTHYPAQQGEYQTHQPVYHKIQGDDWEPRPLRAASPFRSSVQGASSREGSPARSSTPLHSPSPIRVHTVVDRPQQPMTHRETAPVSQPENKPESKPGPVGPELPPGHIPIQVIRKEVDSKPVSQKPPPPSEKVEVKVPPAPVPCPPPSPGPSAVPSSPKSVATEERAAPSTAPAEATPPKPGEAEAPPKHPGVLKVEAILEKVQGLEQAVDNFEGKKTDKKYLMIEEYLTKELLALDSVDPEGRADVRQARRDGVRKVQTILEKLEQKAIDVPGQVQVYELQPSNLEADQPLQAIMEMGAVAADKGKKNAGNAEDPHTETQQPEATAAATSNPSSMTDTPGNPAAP

Row | Kd [1] | Kd [2] | BAG3–BD KD ± SD [2] | SMILES | BAG3 FULL KD ± SD [1] | IC50 [3]
1 | 24 ± 4.6 µM | 2.78 ± 0.88 µM | – | O=C(OCc1cn(Cc2ccc3ccccc3n2)nn1)c1ccnc(Cl)c1 [Compound 6, (1‐(Quinolin‐2‐ylmethyl)‐1H‐1,2,3‐triazol‐4‐yl)methyl 2‐chloroisonicotinate] | – | –
2 | 12.6 ± 1.2 µM | 2.43 ± 0.09 µM | – | O=C(OCc1cn(Cc2ccc3ccccc3n2)nn1)c1ccccc1I [Compound 8, (1‐(Quinolin‐2‐ylmethyl)‐1H‐1,2,3‐triazol‐4‐yl)methyl 2‐iodobenzoate] | – | –
3 | 11.4 ± 2.43 µM | 6.32 ± 0.12 µM | – | Nc1ccc(C(=O)OCc2cn(Cc3ccc4ccccc4n3)nn2)cc1Br [Compound 7, (1‐(Quinolin‐2‐ylmethyl)‐1H‐1,2,3‐triazol‐4‐yl)methyl 4‐amino‐3‐bromobenzoate] | – | –

The next lines start with the molecule.

Row | SMILES | Kd [1] | Kd [2] | BAG3–BD KD ± SD [2] | BAG3 FULL KD ± SD [1] | IC50 [3]
4 | O=C(OCc1cn(Cc2cccc3ccccc23)nn1)c1cccc([N+](=O)[O-])c1 [Compound 3, (1‐(Naphthalen‐1‐ylmethyl)‐1H‐1,2,3‐triazol‐4‐yl)methyl 3‐nitrobenzoate] | – | – | not able to bind | not able to bind; also recorded: No binding | –
5 | Nc1ccc(C(=O)OCc2cn(Cc3cccc4ccccc34)nn2)cc1Br [Compound 10, (1‐(Naphthalen‐1‐ylmethyl)‐1H‐1,2,3‐triazol‐4‐yl)methyl 4‐amino‐3‐bromobenzoate] | – | – | – | did not show a satisfactory binding; also recorded: No binding | –
6 | Cc1cc(C)n(-c2cccc(Cn3cc(COC(=O)c4ccc(N)c(Br)c4)nn3)c2)n1 [Compound 9, (1‐(3‐(3,5‐Dimethyl‐1H‐pyrazol‐1‐yl)benzyl)‐1H‐1,2,3‐triazol‐4‐yl)methyl 4‐amino‐3‐bromobenzoate] | – | – | – | did not show the ability to bind; also recorded: No binding | –
7 | Cc1cc(C)n(-c2cccc(Cn3cc(COC(=O)c4cccc([N+](=O)[O-])c4)nn3)c2)n1 [Compound 4, (1‐(3‐(3,5‐Dimethyl‐1H‐pyrazol‐1‐yl)benzyl)‐1H‐1,2,3‐triazol‐4‐yl)methyl 3‐nitrobenzoate] | – | – | not able to bind | not able to bind; also recorded: No binding | –
8 | O=C(OCc1cn(Cc2ccc3ccccc3n2)nn1)c1cccc([N+](=O)[O-])c1 [Compound 5, (1‐(Quinolin‐2‐ylmethyl)‐1H‐1,2,3‐triazol‐4‐yl)methyl 3‐nitrobenzoate] | 12.5 ± 2.26 µM | 8.27 ± 0.98 µM | – | – | –
9 | O=C(OCc1cn(COCc2ccccc2)nn1)c1cccc([N+](=O)[O-])c1 [Compound 1, (1‐((Benzyloxy)methyl)‐1H‐1,2,3‐triazol‐4‐yl)methyl 3‐nitrobenzoate] | 3.31 ± 0.18 µM | 1.87 ± 0.03 µM | low micromolar range | low micromolar range | –
10 | CCOC(=O)CN1C(=O)S/C(=C\c2ccc(O)c(O)c2)C1=O [LK4, (Z)‐ethyl 2‐(5‐(3,4‐dihydroxybenzylidene)‐2,4‐dioxothiazolidin‐3‐yl)acetate] | – | – | – | – | > 50 µM
